Results on 93 compounds are retold here after ChEMBL document CHEMBL3507680, “University of Dundee, Gates Library screen for HepG2 cell viability”.

The data set is described as follows: Human HepG2 cell viability assay in 384 well format. On the set-up: dose 125 nL, time 70.5 hour; cytotoxicity at 70.5 h: concentration not given beside the values. To be noted: HepG2 cells, read-out: Inhibition. It counts as toxicity, cell-based.

Turning to `COc1ncccc1C(=O)Nc1ccccc1-c1ccc(=O)n(C)n1`, the cytotoxicity at 70.5 h was 3.64%.

`COCC(=O)Nc1ccccc1-c1ccc(=O)n(C)n1`: the cytotoxicity at 70.5 h is -4.15%. Regarding `COc1ccc(C(=O)Nc2ccccc2-c2ccc(=O)n(C)n2)nn1`, the cytotoxicity at 70.5 h was found to be 1.94%. With `Cc1cccc(NC(=O)c2ccc(-n3cncn3)nn2)n1` the figure was -1.44%; with `O=C(NCCn1nc(-n2cncn2)ccc1=O)c1ccc(F)cc1F`, -5.23%; with `CCSc1ccccc1C(=O)NCCn1nc(-n2cncn2)ccc1=O`, -10.2%.

As to `Cc1csc(C(=O)N2CCC(S(C)(=O)=O)C2)c1` (stereo not drawn), the cytotoxicity at 70.5 h was -3.26%.

As to `O=C(c1ccccn1)N1CCC(S(=O)(=O)c2ccccc2)C1` (stereo not drawn), the cytotoxicity at 70.5 h was -9.33%. `Cc1csc(C(=O)N2CCC(S(C)(=O)=O)CC2)c1`: the cytotoxicity at 70.5 h is -5.62%.

On to `O=S(=O)(CC1CCCN1S(=O)(=O)c1cccnc1)c1ccccc1` (stereo not drawn), for which the cytotoxicity at 70.5 h was -8.38%.

Regarding `Cc1nn(C)c(C)c1S(=O)(=O)NCC(C)(O)c1ccc2c(c1)OCO2` (stereo not drawn), the cytotoxicity at 70.5 h was -1.59%. With `Cn1cnc(S(=O)(=O)NCC2(O)CCc3ccccc32)c1` (stereo not drawn), the cytotoxicity at 70.5 h was determined as 9.61%. The figure for `Cn1cnc(S(=O)(=O)NCC2CCN(C(=O)Oc3ccccc3)CC2)c1` is 0.307%. With `O=c1[nH]c2cc(S(=O)(=O)N3CCC(c4ccsc4)CC3)ccc2o1`, the cytotoxicity at 70.5 h was -5%.

`Cn1cc(C(=O)Nc2ccc(CC(=O)NC3CC3)cc2)nn1`: the cytotoxicity at 70.5 h is -6.27%.

Regarding `Cn1cc(S(=O)(=O)NCc2ccsc2)cn1`, the cytotoxicity at 70.5 h came to 13.8%. On to `Cn1cc(S(=O)(=O)NCC2CCN(C(=O)Oc3ccccc3)CC2)cn1`, for which the cytotoxicity at 70.5 h stood at 2.31%.

As to `COc1ccc(CC(=O)Nc2c(C)nc(N3CCCC3)nc2C)cc1`, the cytotoxicity at 70.5 h was -2.54%.

As to `Cc1nc(N2CCCC2)nc(C)c1NC(=O)c1ccco1`, the cytotoxicity at 70.5 h is -1.46%. Take `Cc1nc(N2CCOCC2)nc(C)c1NC(=O)c1ccco1`: the cytotoxicity at 70.5 h is 3.55%. On to `Cc1nc(N(C)C)nc(C)c1NS(=O)(=O)c1ccc(OC(F)(F)F)cc1`, for which the cytotoxicity at 70.5 h was -6.13%. The figure for `Cc1cc(N2CCCC2)nc(CNS(=O)(=O)Cc2ccccc2)n1` is -7.92%; for `CC(=O)N1CCN(c2cc(N(C)C)cnn2)CC1` it is -3.71%; for `CN(C)c1cnnc(N2CCN(C(=O)CCC3CCCCC3)CC2)c1` it is -7.83%. Turning to `CN(C)c1cnnc(N2CCN(C(=O)Cc3ccccc3)CC2)c1`, the cytotoxicity at 70.5 h is -8%.

On to `CC(=O)N1CCN(c2cnnc(N3CCCC3)c2)CC1`, for which the cytotoxicity at 70.5 h is -1.26%. The figure for `CS(=O)(=O)N1CCN(c2cnnc(N3CCCC3)c2)CC1` is -12.9%; for `CC(=O)N1CCN(c2cc(N3CCOCC3)cnn2)CC1` it is 6.14%. Take `CCOc1ncc(NC(=O)c2ccccn2)c(OCC)n1`: the cytotoxicity at 70.5 h is -13.3%. On to `CCCS(=O)(=O)NCCn1ccc(-c2cccs2)n1`, for which the cytotoxicity at 70.5 h worked out at 25.9%. Take `Cc1nnsc1C(=O)NCc1nn(C2CCCC2)c2c1CCCC2`: the cytotoxicity at 70.5 h is -5.38%.

As for `Cn1nc(CNC(=O)c2ccc(OC(F)(F)F)cc2)c2c1CCOC2`, the cytotoxicity at 70.5 h came to 2.03%. Consider `Cc1ccc(N2CCc3sc(C(=O)N4CCOCC4)cc32)nn1`, for which the cytotoxicity at 70.5 h came out at 2.34%. With `COCCn1cc2c(n1)C(CNS(C)(=O)=O)OCC2` (stereo not drawn), the cytotoxicity at 70.5 h is -2.51%. For `O=C(Nc1ccccc1)C1=NOC2(CCCN(C(=O)N3CCCC3)C2)C1` (stereo not drawn), the cytotoxicity at 70.5 h was -0.586%. The figure for `CCOCc1ncn2c1CN(C(=O)Nc1ccc(CC)cc1)CC2` is 14.1%.

For the compound `Cc1cccc(NC(=O)N2CCn3cnc(COCC4CC4)c3C2)c1`, the cytotoxicity at 70.5 h is -13.2%. For the compound `CCOCc1ncn2c1CN(C(=O)Nc1cccc(F)c1)CC2`, the cytotoxicity at 70.5 h is -13.3%. As to `Cc1nc(N(C)C)nc2c1COCC21CCN(C(=O)C2CC2)C1` (stereo not drawn), the cytotoxicity at 70.5 h was -3.72%. For `CN(C)c1ncc(-c2cc(C(=O)NC(C)(C)CO)n(CC3CC3)c2)cn1`, the cytotoxicity at 70.5 h is -12.5%. Take `CCOCC1CN(Cc2ccc3c(c2)OCO3)Cc2ncn(C)c21` (stereo not drawn): the cytotoxicity at 70.5 h was -10.5%. As for `CO[C@@H]1CCN(c2ncc(F)cn2)[C@H]1Cc1cnn(C)c1`, the cytotoxicity at 70.5 h is -11.6%.

In the case of `O=C([C@H]1C[C@H]2[C@H](CCN2Cc2cccs2)O1)N1CCOCC1`, the cytotoxicity at 70.5 h is -16.9%. Turning to `CC(C)NC(=O)N1CCC2(CC(=O)N(c3ccsc3)C2)C1` (stereo not drawn), the cytotoxicity at 70.5 h was -14.3%. Turning to `CC(C)CCC(=O)N1CC[C@@H]2[C@H](CC1)N(S(C)(=O)=O)CCS2(=O)=O`, the cytotoxicity at 70.5 h was -10.2%. With `O=C([C@H]1CCCO1)N1CCc2ncnc(C3CC3)c2CC1`, the cytotoxicity at 70.5 h is -11.8%. Consider `CC(C)Nc1ncnc2c1CCN(Cc1ccoc1)CC2`, for which the cytotoxicity at 70.5 h is -12.6%.

Take `CN(C)Cc1nn(C)c2c1CCN(C(=O)c1cccnc1)C2`: the cytotoxicity at 70.5 h is -20.7%. Take `Cc1cccc(C(=O)N2CCc3c(CN(C)C)nn(C)c3C2)n1`: the cytotoxicity at 70.5 h was -14.3%. For the compound `COc1cc(N2CC[C@@H](OC)[C@@H]2Cc2cnn(C)c2)ncn1`, the cytotoxicity at 70.5 h was found to be 33.8%. With `O=C(c1cscn1)N1C[C@@H](Oc2cccnc2)[C@H]2OCCC[C@H]21` the figure was 26.4%; with `COc1cc(N2CC[C@@H]3O[C@H](C(=O)NCC4CC4)C[C@@H]32)ncn1`, 16.5%. Regarding `COc1cc(N2CC[C@@H]3O[C@@H](C(=O)NCCN(C)C)C[C@@H]32)ncn1`, the cytotoxicity at 70.5 h is -9.68%.

Turning to `Cc1ccc(NCc2cncc3c2CCN(Cc2ccccn2)C3)nn1`, the cytotoxicity at 70.5 h was -13.4%. The figure for `CNC(=O)CN1CC[C@H]2CN(C(=O)c3cc[nH]n3)C[C@H]2C1` is -8.85%; for `Cc1cccc(CN2CC3(CCN(C(=O)N(C)C)CC3)OCC2=O)n1` it is -0.965%.

Regarding `O=C(NCC1CCOCC1)[C@H]1C[C@@H]2CCN(c3nncs3)C[C@@H]2O1`, the cytotoxicity at 70.5 h is -9.76%. For `COCCNC(=O)[C@H]1C[C@@H]2CCN(c3ccccc3)C[C@H]2O1`, the cytotoxicity at 70.5 h was -9.93%. `O=C(NC1CC1)[C@@H]1CCO[C@@H]2CCN(CCc3ccccc3)C[C@@H]21`: the cytotoxicity at 70.5 h is -6.53%. Turning to `Cn1cc(CN2CCC(F)(F)C3(CCN(c4ncc(F)cn4)C3)C2)cn1` (stereo not drawn), the cytotoxicity at 70.5 h was -13.8%. `O=C([C@@H]1CCO[C@@H]2CCN(CCc3ccccc3)C[C@@H]21)N1CCCC1`: the cytotoxicity at 70.5 h is 15.3%. Consider `Cn1cc(CN2C[C@H]3CCC[C@@H](CNc4ncccn4)[C@H]3C2)cn1`, for which the cytotoxicity at 70.5 h was -3.23%. As to `Cn1ccnc1NC[C@@H]1CCC[C@@H]2CN(Cc3cccnc3)C[C@@H]21`, the cytotoxicity at 70.5 h came out at 14.5%. Consider `c1ccc(NC[C@@H]2CCC[C@@H]3CN(Cc4cccnc4)C[C@@H]32)nc1`, for which the cytotoxicity at 70.5 h is -5.9%. With `CS(=O)(=O)N1CCO[C@H]2[C@@H](Oc3ncccc3F)CC[C@@H]21` the figure was -5.41%; with `O=C([C@H]1CC[C@@H]2[C@@H](CCN2Cc2nccs2)O1)N1CCOCC1`, -5.21%. As for `O=C(NCC1CCOCC1)[C@@H]1C[C@@H]2[C@@H](CCN2Cc2nccs2)O1`, the cytotoxicity at 70.5 h is -12.1%. With `O=C(c1ccnnc1)N1C[C@H](Oc2ccccn2)[C@H]2OCCC[C@H]21` the figure was -8.72%; with `O=C(N[C@@H]1CN(Cc2ccoc2)[C@@H]2CCCO[C@@H]21)C1CC1`, -12.9%.

Take `CC1=N[C@@]2(CC[C@@H]3CN(Cc4ccccc4)C[C@@H]32)C(=O)N1CC1CC1`: the cytotoxicity at 70.5 h was -21.6%.

With `O=C(N1CCOCC1)N1CCc2ncnc(NC3CCC3)c2CC1`, the cytotoxicity at 70.5 h is -14.5%.

On to `CC(C)NC(=O)N1CCOC2(CCCN(c3ncccc3F)C2)C1` (stereo not drawn), for which the cytotoxicity at 70.5 h is -13.6%.

As to `CCN1CCn2c(C)cnc2C12CCN(C(=O)NCC(C)C)CC2`, the cytotoxicity at 70.5 h was -11.3%.

On to `CN1CCS(=O)(=O)[C@@H]2CCN(C(=O)CC(C)(C)C)CC[C@@H]21`, for which the cytotoxicity at 70.5 h is -3.84%. For `Cc1nc(CN2CC[C@@H]3O[C@@H](C(=O)N4CCOCC4)C[C@@H]32)cs1`, the cytotoxicity at 70.5 h was -9.93%. With `CCN1CCn2c(C)cnc2C12CCN(C(=O)NC)CC2` the figure was -6.2%. Consider `CN(C)C(=O)N[C@H]1CN(Cc2ccc3c(c2)OCO3)[C@@H]2CCCO[C@H]12`, for which the cytotoxicity at 70.5 h was -12.8%.

Turning to `COCC1Cn2nnc(-c3cnn(C)c3)c2CN1Cc1ccoc1` (stereo not drawn), the cytotoxicity at 70.5 h is -8.84%. The figure for `CC(C)NC(=O)N1Cc2nccn2CC(COc2cccnc2)C1` (stereo not drawn) is 9.72%; for `COc1cc(N2CC[C@H]3O[C@@H](C(=O)NC4CCCC4)CC[C@H]32)ncn1` it is -9.02%; for `c1cncc(C2COC3(CCN(Cc4nccs4)CC3)C2)c1` (stereo not drawn) it is -9.69%. The figure for `Cn1cc2c(n1)C(CNCc1ccco1)OCC2` (stereo not drawn) is 19.8%; for `COCC1CC2(CCN(Cc3ccc(C)o3)CC2)CN1C(C)C` (stereo not drawn) it is -3.1%.

In the case of `COCC1CN(Cc2ccc3c(c2)OCO3)Cc2ncn(C)c21` (stereo not drawn), the cytotoxicity at 70.5 h is -12.8%. In the case of `COCCN1CCn2c(CN(C)C(C)C)cnc2C1`, the cytotoxicity at 70.5 h was -7.59%. Take `CCN1CCn2c(C)cnc2C12CCN(C(=O)c1ccco1)CC2`: the cytotoxicity at 70.5 h was -4.85%. For `CCN1CCn2c(C)cnc2C12CCN(C(=O)COC)CC2`, the cytotoxicity at 70.5 h amounted to 25%.

In the case of `CCN1CCn2c(C)cnc2C12CCN(C(=O)Cc1ccccc1)CC2`, the cytotoxicity at 70.5 h was 24.6%. `COc1ccc(CN2CCO[C@H]3[C@H](OCCN4CCCC4)CC[C@@H]32)cc1`: the cytotoxicity at 70.5 h is -9.88%.

As to `COCC1c2c(cnn2CC2CC2)CCN1Cc1ccsc1` (stereo not drawn), the cytotoxicity at 70.5 h was -20.6%.

Regarding `CN1CCN(Cc2cnc3n2CCN(CCc2ccccc2)C3)CC1`, the cytotoxicity at 70.5 h came out at 19.5%. On to `c1cncc(CN2CCO[C@H]3[C@H](OCCN4CCCC4)CC[C@@H]32)c1`, for which the cytotoxicity at 70.5 h is -8.38%.

`CN1C(Cn2cccn2)C[C@@H]2CN(Cc3ccccn3)CC[C@@H]21` (stereo partly drawn): the cytotoxicity at 70.5 h is -10.5%.
